Reference: ChEMBL document CHEMBL5465560, “Selectivity Literature for EUbOPEN Chemogenomic Library” (2024)

How the values were obtained:
[1] = biological target: Tyrosine-protein kinase CSK (Homo sapiens) (UniProt P41240); assay: Selectivity interaction (Kinase panel (literature)) EUB0001199aCl CSK; settings: at 1 µM
[2] = biological target: Calcium/calmodulin-dependent protein kinase type II subunit gamma (Homo sapiens) (UniProt Q13555); assay: Selectivity interaction (KinomeScan (DiscoverX)) EUB0000229b CAMK2G; settings: at 10 µM
Sequence of Calcium/calmodulin-dependent protein kinase type II subunit gamma (Homo sapiens) (Q13555 whole entry): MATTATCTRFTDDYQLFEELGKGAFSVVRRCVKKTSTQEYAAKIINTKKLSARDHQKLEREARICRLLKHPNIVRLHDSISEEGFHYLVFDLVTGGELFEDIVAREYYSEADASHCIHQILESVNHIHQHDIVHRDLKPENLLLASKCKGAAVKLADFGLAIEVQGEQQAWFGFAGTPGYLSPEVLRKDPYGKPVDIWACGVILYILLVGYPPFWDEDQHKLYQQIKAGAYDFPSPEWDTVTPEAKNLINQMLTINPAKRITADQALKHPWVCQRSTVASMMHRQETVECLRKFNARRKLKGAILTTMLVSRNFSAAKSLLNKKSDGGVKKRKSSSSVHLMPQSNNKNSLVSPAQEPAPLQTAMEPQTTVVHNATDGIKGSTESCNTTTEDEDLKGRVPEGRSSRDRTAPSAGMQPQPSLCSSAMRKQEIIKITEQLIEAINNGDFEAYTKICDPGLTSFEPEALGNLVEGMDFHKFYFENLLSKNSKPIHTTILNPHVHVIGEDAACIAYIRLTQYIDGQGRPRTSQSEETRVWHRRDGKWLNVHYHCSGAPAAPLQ

[3] = biological target: SWI/SNF-related matrix-associated actin-dependent regulator of chromatin subfamily A member 4 (Homo sapiens) (UniProt P51532); assay: Selectivity interaction (Human bromodomain panel (DSF assay)) EUB0000233b SMARCA4
Sequence of SWI/SNF-related matrix-associated actin-dependent regulator of chromatin subfamily A member 4 (Homo sapiens) (P51532 whole entry): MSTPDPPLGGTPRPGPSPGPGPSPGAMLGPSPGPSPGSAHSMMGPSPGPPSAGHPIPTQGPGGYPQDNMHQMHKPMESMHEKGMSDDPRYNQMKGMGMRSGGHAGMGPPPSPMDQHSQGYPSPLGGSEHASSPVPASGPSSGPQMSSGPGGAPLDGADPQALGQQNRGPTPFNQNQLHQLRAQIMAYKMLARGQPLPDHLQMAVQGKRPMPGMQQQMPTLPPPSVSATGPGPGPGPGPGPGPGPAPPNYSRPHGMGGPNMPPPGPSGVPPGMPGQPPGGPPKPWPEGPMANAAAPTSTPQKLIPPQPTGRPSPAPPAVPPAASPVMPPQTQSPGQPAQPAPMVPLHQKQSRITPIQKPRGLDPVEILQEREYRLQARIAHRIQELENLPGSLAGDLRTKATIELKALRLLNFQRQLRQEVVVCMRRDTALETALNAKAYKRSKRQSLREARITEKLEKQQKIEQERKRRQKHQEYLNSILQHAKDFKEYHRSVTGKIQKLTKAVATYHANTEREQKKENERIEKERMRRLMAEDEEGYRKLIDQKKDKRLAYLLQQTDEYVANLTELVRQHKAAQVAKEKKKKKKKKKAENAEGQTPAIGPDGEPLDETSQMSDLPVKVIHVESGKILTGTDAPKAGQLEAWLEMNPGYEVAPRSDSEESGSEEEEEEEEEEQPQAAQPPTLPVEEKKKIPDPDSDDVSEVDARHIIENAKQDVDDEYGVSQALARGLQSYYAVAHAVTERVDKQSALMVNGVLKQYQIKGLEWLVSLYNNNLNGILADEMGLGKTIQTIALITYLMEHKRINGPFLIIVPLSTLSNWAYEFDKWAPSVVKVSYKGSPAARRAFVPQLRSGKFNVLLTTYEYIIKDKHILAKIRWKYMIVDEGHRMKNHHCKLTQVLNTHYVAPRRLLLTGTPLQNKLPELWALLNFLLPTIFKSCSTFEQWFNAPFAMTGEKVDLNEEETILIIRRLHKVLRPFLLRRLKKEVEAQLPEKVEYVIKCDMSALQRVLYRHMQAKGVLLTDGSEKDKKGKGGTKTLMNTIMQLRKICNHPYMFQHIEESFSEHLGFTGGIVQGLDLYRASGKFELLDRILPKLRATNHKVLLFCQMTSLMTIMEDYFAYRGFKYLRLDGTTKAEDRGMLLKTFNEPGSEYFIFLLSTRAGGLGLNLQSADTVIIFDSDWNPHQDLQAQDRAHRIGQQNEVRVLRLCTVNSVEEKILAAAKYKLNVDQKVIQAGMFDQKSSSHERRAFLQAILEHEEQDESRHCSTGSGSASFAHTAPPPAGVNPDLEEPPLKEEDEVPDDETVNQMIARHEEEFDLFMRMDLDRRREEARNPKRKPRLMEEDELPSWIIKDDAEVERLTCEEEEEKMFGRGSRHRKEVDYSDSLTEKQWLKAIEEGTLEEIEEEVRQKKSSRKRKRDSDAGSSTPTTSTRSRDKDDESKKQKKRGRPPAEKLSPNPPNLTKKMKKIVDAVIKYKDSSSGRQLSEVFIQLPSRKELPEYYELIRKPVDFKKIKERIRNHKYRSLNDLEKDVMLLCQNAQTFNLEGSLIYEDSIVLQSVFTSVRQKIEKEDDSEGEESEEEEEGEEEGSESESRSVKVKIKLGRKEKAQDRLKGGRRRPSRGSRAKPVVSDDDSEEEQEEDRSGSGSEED

[4] = biological target: Tyrosine-protein kinase Fyn (Homo sapiens) (UniProt P06241); assay: Selectivity interaction (ActivX KiNativ screen (kinase selectivity in THP-1 cell lysates)) EUB0000639a FYN; type: subcellular; settings: lysate, at 5 µM
Sequence of Tyrosine-protein kinase Fyn (Homo sapiens) (P06241 2-537 limits assumed): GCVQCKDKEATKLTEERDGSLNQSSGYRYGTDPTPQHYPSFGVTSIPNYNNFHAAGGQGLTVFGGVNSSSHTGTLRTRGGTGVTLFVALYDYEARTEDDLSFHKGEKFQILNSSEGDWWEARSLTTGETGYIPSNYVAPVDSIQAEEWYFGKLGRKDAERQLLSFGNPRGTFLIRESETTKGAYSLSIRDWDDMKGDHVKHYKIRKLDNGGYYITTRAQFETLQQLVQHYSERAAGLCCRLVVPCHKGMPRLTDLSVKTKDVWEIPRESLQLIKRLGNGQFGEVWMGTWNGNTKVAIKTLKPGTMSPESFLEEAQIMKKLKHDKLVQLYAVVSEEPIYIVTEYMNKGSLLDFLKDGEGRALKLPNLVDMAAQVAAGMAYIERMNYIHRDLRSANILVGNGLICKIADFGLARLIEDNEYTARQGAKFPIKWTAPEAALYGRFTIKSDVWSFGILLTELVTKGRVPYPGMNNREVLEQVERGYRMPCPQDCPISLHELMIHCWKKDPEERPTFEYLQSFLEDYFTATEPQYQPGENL

[5] = biological target: Insulin-like growth factor 1 receptor (Homo sapiens, UniProt P08069); assay: Selectivity interaction (Ambit KINOMEscan and KiNATiv profiling in Jurkat cells) EUB0000090b IGF1R; type: cell-based; settings: at 1 µM
[6] = biological target: Serine/threonine-protein kinase MRCK gamma (Homo sapiens) (UniProt Q6DT37); assay: Selectivity interaction (KinomeScan (DiscoverX)) EUB0000618a CDC42BPG; settings: at 10 µM
[7] = biological target: Tyrosine-protein kinase Lyn (Homo sapiens, UniProt P07948); assay: Selectivity interaction (KinomeScan (DiscoverX)) EUB0000618a LYN; settings: at 10 µM
[8] = biological target: Serine/threonine-protein kinase haspin (Homo sapiens, UniProt Q8TF76)
[9] = biological target: Calcium/calmodulin-dependent protein kinase type 1 (Homo sapiens) (UniProt Q14012); assay: Selectivity interaction (ActivX KiNativ screen (ex vivo kinase selectivity in human PBMCs)) EUB0001619a CAMK1; type: cell-based; settings: PBMC, at 1 µM
Sequence of Calcium/calmodulin-dependent protein kinase type 1 (Homo sapiens) (Q14012 whole entry, looked up): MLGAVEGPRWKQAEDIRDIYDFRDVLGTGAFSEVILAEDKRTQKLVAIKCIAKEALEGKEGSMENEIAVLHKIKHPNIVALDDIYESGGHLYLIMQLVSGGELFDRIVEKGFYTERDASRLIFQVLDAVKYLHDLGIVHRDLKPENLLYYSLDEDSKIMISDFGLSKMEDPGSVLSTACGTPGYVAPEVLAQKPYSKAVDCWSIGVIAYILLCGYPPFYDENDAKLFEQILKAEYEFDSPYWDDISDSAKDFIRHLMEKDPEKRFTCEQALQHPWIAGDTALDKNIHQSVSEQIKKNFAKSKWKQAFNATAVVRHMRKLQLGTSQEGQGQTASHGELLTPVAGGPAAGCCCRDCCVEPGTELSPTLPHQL

[10] = biological target: T1, Inhibitor of nuclear factor kappa-B kinase subunit beta (Homo sapiens) (UniProt O14920); settings: at 1 µM
T1 sequence (whole entry): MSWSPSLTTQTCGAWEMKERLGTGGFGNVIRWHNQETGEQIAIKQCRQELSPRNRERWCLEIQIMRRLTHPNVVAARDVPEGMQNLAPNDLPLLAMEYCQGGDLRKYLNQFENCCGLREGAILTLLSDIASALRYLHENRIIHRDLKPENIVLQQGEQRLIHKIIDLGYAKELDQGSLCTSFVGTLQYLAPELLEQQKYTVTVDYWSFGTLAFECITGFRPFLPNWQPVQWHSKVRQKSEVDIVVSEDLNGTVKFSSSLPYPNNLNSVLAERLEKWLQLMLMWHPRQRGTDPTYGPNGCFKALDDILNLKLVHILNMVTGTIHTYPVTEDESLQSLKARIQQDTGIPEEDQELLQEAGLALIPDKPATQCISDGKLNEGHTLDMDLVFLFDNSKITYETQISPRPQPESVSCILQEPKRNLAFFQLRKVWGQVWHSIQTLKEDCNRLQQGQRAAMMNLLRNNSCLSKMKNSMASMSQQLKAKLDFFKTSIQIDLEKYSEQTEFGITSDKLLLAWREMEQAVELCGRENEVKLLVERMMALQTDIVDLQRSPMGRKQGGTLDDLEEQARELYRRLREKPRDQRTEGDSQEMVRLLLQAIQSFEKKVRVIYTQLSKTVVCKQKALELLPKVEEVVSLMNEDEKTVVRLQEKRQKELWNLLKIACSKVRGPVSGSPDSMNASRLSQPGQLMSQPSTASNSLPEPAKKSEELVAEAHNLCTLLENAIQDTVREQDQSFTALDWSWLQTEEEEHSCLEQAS

[11] = biological target: T2, Ephrin type-B receptor 3 (Homo sapiens) (UniProt P54753); assay: Selectivity interaction (Upstate Kinase Profiler service (Millipore)) EUB0000056c EPHB3; settings: at 1 µM
T2 sequence (whole entry): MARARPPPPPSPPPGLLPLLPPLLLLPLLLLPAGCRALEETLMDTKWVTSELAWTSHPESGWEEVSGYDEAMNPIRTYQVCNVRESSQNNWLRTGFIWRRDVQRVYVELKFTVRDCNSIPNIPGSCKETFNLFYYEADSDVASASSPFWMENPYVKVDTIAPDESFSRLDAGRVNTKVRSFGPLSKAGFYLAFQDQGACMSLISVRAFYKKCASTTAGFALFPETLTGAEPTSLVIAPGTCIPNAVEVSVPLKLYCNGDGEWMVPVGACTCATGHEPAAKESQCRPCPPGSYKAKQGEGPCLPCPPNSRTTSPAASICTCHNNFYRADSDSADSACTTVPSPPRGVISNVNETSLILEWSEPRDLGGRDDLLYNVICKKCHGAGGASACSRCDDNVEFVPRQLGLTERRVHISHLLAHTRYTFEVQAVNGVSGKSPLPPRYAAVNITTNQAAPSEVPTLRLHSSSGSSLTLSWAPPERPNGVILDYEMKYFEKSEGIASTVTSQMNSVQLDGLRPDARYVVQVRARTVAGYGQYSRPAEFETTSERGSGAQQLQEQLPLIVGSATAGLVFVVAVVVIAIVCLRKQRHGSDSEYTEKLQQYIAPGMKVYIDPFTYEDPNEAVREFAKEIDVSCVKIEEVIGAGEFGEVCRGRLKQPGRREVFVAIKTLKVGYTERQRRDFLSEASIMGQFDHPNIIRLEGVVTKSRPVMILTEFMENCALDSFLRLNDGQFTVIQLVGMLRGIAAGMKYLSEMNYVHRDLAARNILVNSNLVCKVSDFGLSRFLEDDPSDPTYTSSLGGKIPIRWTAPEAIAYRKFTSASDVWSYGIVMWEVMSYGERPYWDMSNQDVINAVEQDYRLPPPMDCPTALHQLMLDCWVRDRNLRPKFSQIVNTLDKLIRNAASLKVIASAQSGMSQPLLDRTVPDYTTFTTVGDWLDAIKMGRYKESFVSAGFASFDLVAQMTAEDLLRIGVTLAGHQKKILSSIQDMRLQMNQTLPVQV

[12] = biological target: Death-associated protein kinase 3 (Homo sapiens) (UniProt O43293); assay: Selectivity interaction (SelectScreen profiling (Invitrogen)) EUB0000607a DAPK3; settings: at 2 µM
Sequence of Death-associated protein kinase 3 (Homo sapiens) (O43293 whole entry, looked up): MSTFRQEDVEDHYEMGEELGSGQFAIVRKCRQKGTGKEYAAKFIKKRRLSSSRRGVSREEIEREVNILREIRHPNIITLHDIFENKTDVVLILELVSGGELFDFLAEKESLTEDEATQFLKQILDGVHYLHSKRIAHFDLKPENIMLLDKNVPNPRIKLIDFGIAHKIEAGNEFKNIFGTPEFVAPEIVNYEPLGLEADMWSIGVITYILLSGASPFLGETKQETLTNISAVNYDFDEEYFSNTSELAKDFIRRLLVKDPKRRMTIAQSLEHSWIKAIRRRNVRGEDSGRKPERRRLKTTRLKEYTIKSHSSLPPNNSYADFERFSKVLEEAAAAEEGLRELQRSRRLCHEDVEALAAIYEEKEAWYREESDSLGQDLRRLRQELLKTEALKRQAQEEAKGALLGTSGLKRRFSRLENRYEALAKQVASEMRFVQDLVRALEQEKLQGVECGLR

[13] = biological target: Receptor-type tyrosine-protein kinase FLT3 (Homo sapiens) (UniProt P36888); assay: Selectivity interaction (KinomeScan (DiscoverX)) EUB0000607a FLT3; settings: at 10 µM
Sequence of Receptor-type tyrosine-protein kinase FLT3 (Homo sapiens) (P36888 whole entry): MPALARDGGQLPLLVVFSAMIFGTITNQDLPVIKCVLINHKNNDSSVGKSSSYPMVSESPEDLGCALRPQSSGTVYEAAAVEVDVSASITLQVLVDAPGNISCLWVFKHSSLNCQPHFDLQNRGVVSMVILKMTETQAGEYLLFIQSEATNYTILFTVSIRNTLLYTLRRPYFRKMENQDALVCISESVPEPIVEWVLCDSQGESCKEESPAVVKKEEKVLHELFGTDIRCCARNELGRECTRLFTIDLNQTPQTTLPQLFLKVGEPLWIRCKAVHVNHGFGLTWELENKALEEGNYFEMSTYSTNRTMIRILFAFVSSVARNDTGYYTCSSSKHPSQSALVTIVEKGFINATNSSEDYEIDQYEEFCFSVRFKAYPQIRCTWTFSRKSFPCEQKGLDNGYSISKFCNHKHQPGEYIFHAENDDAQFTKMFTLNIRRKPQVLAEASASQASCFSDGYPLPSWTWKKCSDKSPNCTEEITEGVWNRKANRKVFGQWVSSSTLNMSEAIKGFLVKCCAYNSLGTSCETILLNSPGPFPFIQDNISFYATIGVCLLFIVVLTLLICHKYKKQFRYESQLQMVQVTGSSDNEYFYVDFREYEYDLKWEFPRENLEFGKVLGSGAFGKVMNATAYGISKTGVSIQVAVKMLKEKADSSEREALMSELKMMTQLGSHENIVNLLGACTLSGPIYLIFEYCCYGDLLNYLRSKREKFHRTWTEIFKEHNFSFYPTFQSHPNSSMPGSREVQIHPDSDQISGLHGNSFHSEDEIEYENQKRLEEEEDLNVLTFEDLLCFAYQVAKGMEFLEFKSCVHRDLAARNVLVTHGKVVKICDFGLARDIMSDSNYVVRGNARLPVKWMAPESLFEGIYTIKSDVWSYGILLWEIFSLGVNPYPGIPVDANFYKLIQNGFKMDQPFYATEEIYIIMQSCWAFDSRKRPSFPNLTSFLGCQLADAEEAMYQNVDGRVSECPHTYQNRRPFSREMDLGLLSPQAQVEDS

[14] = system: Tyrosine-protein kinase ABL1 (Homo sapiens), P00519 [H396P]; assay: (§1) Selectivity interaction (LanthaScreen Eu Kinase Binding Assay) EUB0001632a ABL1; settings: at 10 µM
[15] = system: Tyrosine-protein kinase ABL1 (Homo sapiens), P00519 [Q252H]; assay: as §1; settings: at 10 µM
[16] = system: Tyrosine-protein kinase ABL1 (Homo sapiens), P00519 [M351T]; assay: as §1; settings: at 10 µM
[17] = biological target: TGF-beta receptor type-2 (Homo sapiens) (UniProt P37173); assay: Selectivity interaction (LanthaScreen Eu Kinase Binding Assay) EUB0001632a TGFBR2; settings: at 10 µM

Sequence of Tyrosine-protein kinase CSK (Homo sapiens) (P41240 2-450 limits assumed): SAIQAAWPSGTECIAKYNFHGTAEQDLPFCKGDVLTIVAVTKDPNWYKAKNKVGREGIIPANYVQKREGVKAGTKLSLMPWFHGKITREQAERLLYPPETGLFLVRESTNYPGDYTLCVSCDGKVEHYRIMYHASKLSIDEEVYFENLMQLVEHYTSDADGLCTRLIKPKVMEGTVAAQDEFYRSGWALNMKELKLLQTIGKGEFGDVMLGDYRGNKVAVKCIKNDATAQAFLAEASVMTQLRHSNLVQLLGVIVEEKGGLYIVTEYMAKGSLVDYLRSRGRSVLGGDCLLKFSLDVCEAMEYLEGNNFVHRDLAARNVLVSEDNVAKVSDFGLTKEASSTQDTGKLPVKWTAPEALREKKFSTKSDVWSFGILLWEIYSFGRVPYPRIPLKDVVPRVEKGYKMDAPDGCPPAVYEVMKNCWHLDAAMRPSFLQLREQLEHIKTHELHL

**Q.** Which % of inhibition [1] does the source give for `CN1Cc2nccc(-c3cn(C)nc3-c3ccc(F)cc3)c2C1=O` here?
**A.** -3%

**Q.** How did the % binding [2] turn out when `COc1cc(N(C)c2ccnc3ccc(C(F)(F)F)cc23)cc(OC)c1OC` was run?
**A.** 90%

**Q.** How did the dTM [3] turn out when `CN(C)CCCOc1ccc(-c2cc(NCCCn3cccn3)nc(S(C)(=O)=O)n2)cc1` was run?
**A.** < 2 K

**Q.** `CC[C@@H]1[C@H](F)C(=O)N[C@@H]1COc1nccc2cc(C(N)=O)c(OC)cc12` [ZIMLOVISERTIB] was tested. Which % of inhibition [4] did it give?
**A.** -13.3%

**Q.** How did the % of control [5] turn out when `CN(C)C/C=C/C(=O)Nc1ccc(C(=O)N2CCCC(Nc3ncc(Cl)c(-c4c[nH]c5ccccc45)n3)C2)cc1` (configuration not stated) was run?
**A.** 91%

**Q.** `O[C@H]1CC[C@H](Nc2ncc3nc(Nc4c(F)cc(F)cc4F)n([C@H]4CCOC4)c3n2)CC1` was tested. Which % of control [6] did it give?
**A.** 81%

**Q.** What about the % of control [7] of the same molecule?
**A.** 98%

**Q.** With `CCc1cccc(CC)c1NC(=O)c1nn(C)c2c1CCc1cnc(Nc3ccc(C(=O)NC4CCN(C)CC4)cc3OC(F)(F)F)nc1-2` as the molecule, how does the IC50 [8] read?
**A.** > 10 µM

**Q.** How did the % of inhibition [9] turn out when `N#Cc1cccc(-c2c[nH]c3ncnc(N4CCOCC4)c23)c1` was run?
**A.** 2%

**Q.** Which results are given for `Cc1ccc(-c2ccc3c(ccc4sc5c(c43)NC[C@@H](C)NC5=O)n2)cn1`?
**A.** % of inhibition [10]: 0%; % of inhibition [11]: -22%

**Q.** What does the source list for `CNC(=O)Nc1ccc(-c2nc(N3CC4CCC(C3)O4)c3cnn(C4CCC5(CC4)OCCO5)c3n2)cc1`?
**A.** % of inhibition [12]: 2%; % of control [13]: 77%

**Q.** For `Cn1cc(-n2cnc3c(NCc4nc5cc(Cl)c(Cl)cc5[nH]4)nc(N4CCOCC4)nc32)cn1`, which % of inhibition [14] is on record?
**A.** -3.27%

**Q.** What about the % of inhibition [15] of the same molecule?
**A.** -18.3%

**Q.** And the % of inhibition [16]?
**A.** -10.1%

**Q.** What about the % of inhibition [17] of the same molecule?
**A.** -26.6%
